Reference: US9006143B2, “Synergistic fungicidal active substance combinations” (Bayer Intellectual Property GmbH, priority 2003, dated 2015)
Like-named read-outs stand apart in the source and are kept apart here.

What was measured:
Alternaria mali = Alternaria mali test (in vitro)/microtitre plates; format: cell-based; conditions: microtitre plates, 5 days of incubation
Sphaerotheca fuliginea [1] = experiment: Sphaerotheca fuliginea test (cucumber)/protective; format: in vivo; conditions: protective, 7 days after inoculation; for pest or weed control at 2 g/ha: application rate 2 g/ha
Puccinia recondita = experiment: Puccinia test (wheat)/curative; conditions: single active compound, application rate 62.5 g/ha, curative, evaluation 8 days after inoculation
Description: Puccinia Test (Wheat)/Curative
To test for curative activity, young plants are sprayed with a conidia suspension of Puccinia recondita. The plants remain in an incubation cabinet at 20° C. and 100% relative atmospheric humidity for 48 hours.
The plants are placed in a greenhouse at a temperature of about 20° C. and a relative atmospheric humidity of about 80% to promote the development of rust pustules.
Evaluation is carried out 8 days after the inoculation.

Gibberella zeae = format: in vivo; conditions: single active compound, application rate 62.5 g/ha; barley, curative, evaluation 6 days after inoculation
Rhizoctonia solani = Rhizoctonia solani test (in vitro)/microtitre plates; conditions: microtitre plates, 5 days of incubation
Description: Rhizoctonia solani Test (in vitro)/Microtitre Plates
The microtest is carried out in microtitre plates using potato dextrose broth (PDB) as liquid test medium.
For inoculation, a mycelium suspension of Rhizoctonia solani is used. After 5 days of incubation in the dark and with shaking (10 Hz), for each filled cavity of the microtitre plates, the light transmittance is determined with the aid of a spectrophotometer.

Sphaerotheca fuliginea [2] = experiment: Sphaerotheca fuliginea test (gherkin)/protective; format: in vivo; conditions: protective, 21 days after inoculation, application rate 8 ppm
[3] = tested on: Erysiphe graminis f.sp. hordei; experiment: Erysiphe test (barley)/protective; format: in vivo; conditions: single active compound, application rate 12.5 g/ha, protective, evaluation 6 days after inoculation
Botrytis cinerea = Botrytis cinerea test (bean)/protective; conditions: single active compound, application rate 5 g/ha, protective, evaluation 2 days after inoculation
Description: After the spray coating has dried on, 2 small pieces of agar colonized by Botrytis cinerea are placed onto each leaf. The inoculated plants are placed in a darkened chamber at about 20° C. and 100% relative atmospheric humidity.
The size of the infected areas on the leaves is evaluated 2 days after the inoculation.

Alternaria solani = Alternaria solani test (tomato)/protective; format: in vivo; conditions: protective, 3 days after inoculation
Phytophthora infestans = format: in vivo; conditions: tomato, protective, 3 days after inoculation
Septoria tritici = Septoria tritici test (in vitro)/microtitre plates; format: cell-based; conditions: single active compound, application rate 0.01 ppm, microtitre plates, 7 days of incubation
Source text: For inoculation, a spore suspension of Septoria tritici is used.

Pyrenophora teres = Pyrenophora teres test (barley)/curative; conditions: single active compound, application rate 25 g/ha, curative, evaluation 12 days after inoculation
Description: Pyrenophora teres Test (Barley)/Curative
To test for curative activity, young plants are sprayed with a conidia suspension of Pyrenophora teres. The plants remain in an incubation cabinet at 20° C. and 100% relative atmospheric humidity for 48 hours.
The plants are placed in a greenhouse at a temperature of about 20° C. and a relative atmospheric humidity of about 80%.
Evaluation is carried out 12 days after the inoculation.

[4] = Podosphaera fuliginea, 168 h, application rate 0.5 g/ha, read-out: Efficacy in % found
[5] = Podosphaera fuliginea, 168 h, application rate 1 g/ha, read-out: Efficacy in % found
[6] = Podosphaera fuliginea, 168 h, read-out: Efficacy in % found
[7] = Podosphaera fuliginea, 168 h, application rate 20 g/ha, read-out: Efficacy in % found

SMILES: Cn1cc(C(=O)Nc2ccc(F)cc2-c2ccc(Cl)c(Cl)c2)c(C(F)F)n1 [(1-1), N-(3′,4′-dichloro-5-fluoro-1,1′-biphenyl-2-yl)-3-(difluoromethyl)-1-methyl-1H-pyrazole-4-carboxamide]
- Efficacy in % found (Alternaria mali; 0.003 ppm): 25%
- Efficacy in % found (Alternaria mali; 0.03 ppm): 51%
- pest or weed control at 0.5 g/ha (Sphaerotheca fuliginea [1]; [4]): 0%
- pest or weed control at 1 g/ha (Sphaerotheca fuliginea [1]; [5]): 16%
- pest or weed control at 2 g/ha (Sphaerotheca fuliginea [1]; [6]): 36%
- pest or weed control at 4 g/ha (Sphaerotheca fuliginea [1]; Podosphaera fuliginea, 168 h, application rate 4 g/ha, read-out: Efficacy in % found): 30%
- Efficacy in % found (Puccinia recondita): 22%
- Efficacy in % found (Gibberella zeae): 40%
- Efficacy in % found (Rhizoctonia solani; 0.1 ppm): 40%
- Efficacy in % found (Rhizoctonia solani; 0.3 ppm): 80%
- Efficacy in % found (Sphaerotheca fuliginea [2]): 60%
- Efficacy in % found [3]: 0%
- Efficacy in % found (Botrytis cinerea): 54%
- Efficacy in % found (Alternaria solani; application rate 0.5 g/ha): 42%
- Efficacy in % found (Alternaria solani; application rate 1 g/ha): 61%
- Efficacy in % found (Phytophthora infestans; application rate 0.5 g/ha): 0%
- Efficacy in % found (Phytophthora infestans; application rate 1 g/ha): 0%
- Efficacy in % found (Phytophthora infestans; application rate 5 g/ha): 0%
- Efficacy in % found (Phytophthora infestans; application rate 10 g/ha): 0%
- Efficacy in % found (Septoria tritici): 15%
- Efficacy in % found (Pyrenophora teres): 43%

SMILES: Cc1nc(C(F)F)c(C(=O)Nc2ccccc2-c2ccc(Br)cc2)s1 [(1-7), N-(4′-bromo-1,1′-biphenyl-2-yl)-4-(difluoromethyl)-2-methyl-1,3-thiazole-5-carboxamide]
- pest or weed control at 0.5 g/ha (Sphaerotheca fuliginea [1]; [4]): 0%
- pest or weed control at 1 g/ha (Sphaerotheca fuliginea [1]; [5]): 0%
- pest or weed control at 2 g/ha (Sphaerotheca fuliginea [1]; [6]): 0%
- Efficacy in % found (Alternaria solani; application rate 0.5 g/ha): 28%
- Efficacy in % found (Alternaria solani; application rate 1 g/ha): 63%

SMILES: CO/C=C(\C(=O)OC)c1ccccc1Oc1cc(Oc2ccccc2C#N)ncn1 [(2-1) azoxystrobin]
- Efficacy in % found (Sphaerotheca fuliginea [1]; application rate 0.5 g/ha): 20%

SMILES: CO/N=C(/C1=NOCCO1)c1ccccc1Oc1ncnc(Oc2ccccc2Cl)c1F [(2-2) fluoxastrobin, fluoxastrobin, reference compound]
- pest or weed control at 1 g/ha (Sphaerotheca fuliginea [1]; [5]): 0%
- Efficacy in % found (Pyrenophora teres): 0%

SMILES: CNC(=O)/C(=N/OC)c1ccccc1Oc1ncnc(Oc2cccc(Cl)c2C)c1F [(2-3), (2E)-2-(2-{[6-(3-chloro-2-methylphenoxy)-5-fluoro-4-pyrimidinyl]oxy}phenyl)-2-(methoxyimino)-N-methylethanamide, reference compound]
- Efficacy in % found (Alternaria solani; application rate 0.5 g/ha): 22%

SMILES: CO/N=C(/C(=O)OC)c1ccccc1CO/N=C(\C)c1cccc(C(F)(F)F)c1 [(2-4) trifloxystrobin, trifloxystrobin, reference compound]
- pest or weed control at 2 g/ha (Sphaerotheca fuliginea [1]; [6]): 10%
- Efficacy in % found [3]: 78%

SMILES: CO/C=C(/C(=O)OC)c1ccccc1COc1cccc(C(F)(F)F)n1 [(2-11) picoxystrobin, picoxystrobin]
- Efficacy in % found (Puccinia recondita): 78%

SMILES: COC(=O)N(OC)c1ccccc1COc1ccn(-c2ccc(Cl)cc2)n1 [(2-12) pyraclostrobin, pyraclostrobin, reference compound]
- pest or weed control at 2 g/ha (Sphaerotheca fuliginea [1]; [6]): 0%
- Efficacy in % found (Gibberella zeae): 80%

SMILES: CCCC1COC(Cn2cncn2)(c2ccc(Cl)cc2Cl)O1 (centres unmarked) [(3-3) propiconazole]
- Efficacy in % found (Alternaria solani; application rate 0.5 g/ha): 3%

SMILES: Fc1ccc(C2(Cn3cncn3)OC2c2ccccc2Cl)cc1 (centres unmarked) [(3-12) epoxyconazole, epoxiconazole]
- Efficacy in % found (Gibberella zeae): 0%

SMILES: OC(Cc1ccccc1Cl)(Cn1ncnc1S)C1(Cl)CC1 (centres unmarked) [(3-15) prothioconazole, prothioconazole, reference compound]
- pest or weed control at 1 g/ha (Sphaerotheca fuliginea [1]; [5]): 43%
- Efficacy in % found [3]: 67%

SMILES: CC(C)(C)C(O)(CCc1ccc(Cl)cc1)Cn1cncn1 (centres unmarked) [(3-17) tebuconazole, tebuconazole, reference compound]
- pest or weed control at 1 g/ha (Sphaerotheca fuliginea [1]; [5]): 10%
- Efficacy in % found (Pyrenophora teres): 29%

SMILES: CC(C)(C)C(O)C(Oc1ccc(-c2ccccc2)cc1)n1cncn1 (centres unmarked) [(3-21) bitertanol]
- Efficacy in % found (Sphaerotheca fuliginea [1]; application rate 1 g/ha): 0%

SMILES: Cc1ccc(N(SC(F)(Cl)Cl)S(=O)(=O)N(C)C)cc1 [(4-2) tolylfluanid]
- Efficacy in % found (Sphaerotheca fuliginea [1]; application rate 20 g/ha): 0%
- Efficacy in % found (Phytophthora infestans; application rate 10 g/ha): 0%

SMILES: Cc1ccc(C(C)NC(=O)[C@@H](NC(=O)OC(C)C)C(C)C)cc1 (some centres unmarked) [(5-1) iprovalicarb]
- Efficacy in % found (Phytophthora infestans; application rate 5 g/ha): 61%
- Efficacy in % found (Phytophthora infestans; application rate 10 g/ha): 64%

SMILES: CC(C)OC(=O)N[C@H](C(=O)N[C@H](C)c1nc2ccc(F)cc2s1)C(C)C [(5-3) benthiavalicarb]
- Efficacy in % found (Alternaria solani; application rate 1 g/ha): 5%
- Efficacy in % found (Phytophthora infestans; application rate 0.5 g/ha): 56%

SMILES: O=C(Nc1ccccc1-c1ccc(Cl)cc1)c1cccnc1Cl [(6-2) boscalid]
- Efficacy in % found (Sphaerotheca fuliginea [2]): 50%

SMILES: CC1(C(=O)Nc2ccc(O)c(Cl)c2Cl)CCCCC1 [(6-6) fenhexamid]
- Efficacy in % found (Sphaerotheca fuliginea [1]; application rate 20 g/ha): 0%

SMILES: N#Cc1ccccc1NC(=O)c1snc(Cl)c1Cl [(6-11), 3,4-dichloro-N-(2-cyanophenyl)isothiazole-5-carboxamide]
- Efficacy in % found (Puccinia recondita): 0%

SMILES: CC(C)CC(C)c1sccc1NC(=O)c1cn(C)nc1C(F)(F)F (centres unmarked) [(6-14) penthiopyrad]
- Efficacy in % found (Sphaerotheca fuliginea [1]; application rate 4 g/ha): 0%

SMILES: CC(C)CC(C)c1sccc1NC(=O)c1cn(C)nc1C(F)(F)F (centres unmarked) [(6-14), penthiopyrad]
- Efficacy in % found (Puccinia recondita): 44%

SMILES: COCC(=O)N(c1c(C)cccc1C)[C@H](C)C(=O)OC [(8-4) metalaxyl-M]
- Efficacy in % found (Alternaria solani; application rate 0.5 g/ha): 7%

SMILES: COC(=O)[C@@H](C)N(C(=O)Cc1ccccc1)c1c(C)cccc1C [(8-5) benalaxyl-M]
- Efficacy in % found (Alternaria solani; application rate 0.5 g/ha): 14%

SMILES: Cc1cc(C)nc(Nc2ccccc2)n1 [(9-3) pyrimethanil, pyrimethanil, reference compound]
- pest or weed control at 20 g/ha (Sphaerotheca fuliginea [1]; [7]): 0%
- Efficacy in % found (Botrytis cinerea): 4%

SMILES: COC(=O)Nc1nc2ccccc2[nH]1 [(10-3) carbendazim]
- Efficacy in % found (Alternaria mali; 0.03 ppm): 15%

SMILES: CCCOC(=O)NCCCN(C)C [(11-2) propamocarb]
- Efficacy in % found (Rhizoctonia solani; 0.1 ppm): 25%

SMILES: CC(C)NC(=O)N1CC(=O)N(c2cc(Cl)cc(Cl)c2)C1=O [(12-4) iprodione, iprodione, reference compound]
- pest or weed control at 20 g/ha (Sphaerotheca fuliginea [1]; [7]): 0%
- Efficacy in % found (Botrytis cinerea): 13%

SMILES: [O-][n+]1nc(-n2ccnc2)nc2ccc(Cl)cc21 [(14-3) triazoxide, triazoxide, reference compound]
- Efficacy in % found (Septoria tritici): 29%

SMILES: CCO[PH](=O)[O-].CCO[PH](=O)[O-].CCO[PH](=O)[O-].[Al+3] [(17-1) fosetyl-Al]
- Efficacy in % found (Rhizoctonia solani; 0.3 ppm): 24%

SMILES: N#Cc1c(Cl)c(Cl)c(Cl)c(C#N)c1Cl [(19-2) chlorothalonil]
- Efficacy in % found (Sphaerotheca fuliginea [1]; application rate 20 g/ha): 0%

SMILES: CSC1=N[C@@](C)(c2ccccc2)C(=O)N1Nc1ccccc1 [(19-3) fenamidone]
- Efficacy in % found (Alternaria mali; 0.003 ppm): 2%

SMILES: CCCN(CC)CC1COC2(CCC(C(C)(C)C)CC2)O1 (centres unmarked) [(19-10) spiroxamine, spiroxamine, reference compound]
- pest or weed control at 20 g/ha (Sphaerotheca fuliginea [1]; [7]): 0%
- Efficacy in % found (Puccinia recondita): 0%

SMILES: CSC1=N[C@@](C)(c2ccccc2)C(=O)N1Nc1ccccc1 [(19-13) fenamidone]
- Efficacy in % found (Phytophthora infestans; application rate 0.5 g/ha): 41%

SMILES: O=C(Nc1ccccc1)N(Cc1ccc(Cl)cc1)C1CCCC1 [(20-1) pencycuron]
- Efficacy in % found (Alternaria mali; 0.003 ppm): 11%

SMILES: C[C@H](Nc1c(-c2c(F)cc(F)cc2F)c(Cl)nc2ncnn12)C(F)(F)F [(22-1), 5-chloro-N-[(1S)-2,2,2-trifluoro-1-methylethyl]-6-(2,4,6-trifluorophenyl)[1,2,4]triazolo-[1,5-a]pyrimidine-7-amine, reference compound]
- pest or weed control at 2 g/ha (Sphaerotheca fuliginea [1]; [6]): 11%

SMILES: CC(C)[C@@H](C)Nc1c(-c2c(F)cc(F)cc2F)c(Cl)nc2ncnn12 [(22-2), 5-chloro-N-[(1R)-1,2-dimethylpropyl]-6-(2,4,6-trifluorophenyl)[1,2,4]triazolo[1,5-a]-pyrimidine-7-amine, reference compound]
- pest or weed control at 1 g/ha (Sphaerotheca fuliginea [1]; [5]): 22%
